Measured values from US20240209028A1, “CNP COMPOUNDS” (priority 2022, published 2024).
Starred links: 1 amine or outer side, 2 acyl side, 3 side chain; linkers in the order of their positions; H or OH if unused. Positions of bridges follow the written chain, without caps; N, C: chain ends. Residues, ends and D or L forms follow the SMILES beside them. *: point of attachment. C18 diacid = O=C(O)CCCCCCCCCCCCCCCCC(=O)*; γGlu = O=C(O)[C@H](CCC(=O)[*:2])N[*:1]; X1 = O=C(CCCCCCCCCCCCCCCCc1nnn[nH]1)*; AEEA = NCCOCCOCC(=O)O

Tests used:
[1] = Thioflavin T (ThT) assay: lagtime and peptide recovery; assay type: physicochemical; details: assay terminated after 45 hours; for LagTime (h) at pH 6.5: ThT assay, pH 6.5, 37° C.
From the text: The ThT assay was used to evaluate physical stability of the CNP compounds and their suitability for liquid formulation. Low physical stability of peptides may lead to amyloid fibril formation, which is observed as well-ordered, thread-like macromolecular structures in the sample eventually resulting in gel formation. This has traditionally been tested by visual inspection of the sample. However, that kind of measurement is very subjective and depending on the observer. Therefore, the application of a small molecule indicator probe is much more advantageous. Thioflavin T (ThT) is such a probe and has a distinct fluorescence signature when binding to fibrils [Naiki et al. (1989) Anal. Biochem. 177, 244-249; LeVine (1999) Methods. Enzymol. […], 274-284].
Procedure: Thioflavin T was added to the supernatant samples from Example 5 (pH 4.0 and 6.5) using an aqueous ThT stock solution to a final concentration of about 1 μM in the samples. Sample aliquots of 150 μL were placed in a 96 well microtiter plate (Packard OptiPlate™-96, white polystyrene). Usually, two to three replicas of each sample were applied to the plate. The plate was sealed and placed in a fluorescence plate reader (Fluoroskan Ascent FL) and incubated at 37° C. with orbital shaking (960 rpm; 1 mm amplitude). Fluorescence measurements were performed every 20 minutes using excitation through a 444 nm filter and measurement of emission through a 485 nm filter. Between each measurement, the plate was shaken and heated as described above and the assay was terminated after 45 hours. Fluorescence measurements for each microtiter plate well were plotted against time and the lag-time (time until an increase in ThT fluorescence was observed) was estimated.
To assess loss of dissolved peptide following 45h incubation, peptide recovery was measured as the ratio between total peak area after incubation vs. before incubation using the RP-UPLC method described below.
Measurement of LagTime and Peptide recovery % using RP-UPLC: RP-UPLC was conducted using an Acquity UPLC BEH C18 1.7 μm (2.1×30 mm) Waters column (Eluent A: 0.1% v/v % TFA in water; Eluent B: 0.1% v/v TFA in acetonitrile/water 4:1) with gradient elution (0 min: 95% A; 2 min: 20% A; 2.3 min: 20% A; 2.4 min: 95% A; 9 min: 95% A) in a flow rate of 0.9 mL/min and a column temperature of 30° C. UV-detection at 215 nm was used to assess the total peptide area.
Samples at pH 4.0 were prepared as described in Example 5 and subjected to the ThT assay as described above.
Samples at pH 6.5 were prepared as described in Example 5 and subjected to the ThT assay as described above.

[2] = High-Molecular-Weight-Protein (HMWP) formation by SEC-UPLC; assay type: physicochemical; details: increase over two weeks at 37° C., pH 6.5
Procedure: In order to assess the propensity of CNP compounds to form covalent dimers or oligomers when formulated the High-Molecular-Weight-Protein content of CNP compound formulations at pH 4.0 and 6.5 were determined.
Procedure: The relative amount of covalent HMWP was assessed using SEC-UPLC. SEC-UPLC was conducted using a Waters UPLC Protein BEH SEC column, 125A, 4.6×150 mm, 1.7 μm, with isocratic elution (0.3 M NaCl, 10 mM NaH2PO4 and 5 mM H3PO4, 50% (v/v) isopropanol, pH 2.4) with a flow rate of 0.3 mL/min, a column temperature at 50° C. with UV-detection at 215 nm. The total area of peaks eluting prior to the monomeric main peak was termed HMWP and given on a percentage scale relative to the total peptide peak area.
Results: HMWP Formation Following 2-Weeks Quiescent Incubation at 37° C.: Samples at pH 4.0 were prepared as described in Example 5 and the amount of HMWP was determined as described above. Samples were incubated for two weeks at 37° C. and the amount of HMWP was determined again. The increase in HMWP over two weeks incubation at 37° C. are reported in Table 10 (in case the incubation period deviated from two weeks the increase in HMWP was normalized to two weeks assuming a constant formation rate).
Samples at pH 6.5 were prepared as described in Example 5 and the amount of HMWP was determined as described above. Samples were incubated for two weeks at 37° C. and the amount of HMWP was determined again. The increase in HMWP over two weeks incubation at 37° C. are reported in Table 11 (in case the incubation period deviated from two weeks the increase in HMWP was normalized to two weeks assuming a constant formation rate).

| Compound | LagTime (h) at pH 6.5 [1] [h] | 2-Week HMWP formation at pH 6.5 (%), % relative to total peak area [2] [%] | LagTime (h) at pH 4.0 ([1]; ThT, 37° C., shaking) [h] |
| --- | --- | --- | --- |
| CC[C@H](C)[C@@H]1NC(=O)[C@H](CCCNC(=N)N)NC(=O)[C@H](CC(=O)O)NC(=O)[C@H](CC(C)C)NC(=O)[C@@H]2CCCN2C(=O)[C@H](CC(C)C)NC(=O)CNC(=O)[C@H](Cc2ccccc2)NC(=O)[C@@H](NC(=O)CNC(=O)[C@H](CO)NC(=O)[C@H](CO)NC(=O)[C@@H](NC(=O)CNC(=O)[C@@H](NC(=O)[C@H](CCCCN)NC(=O)[C@H](CCC(N)=O)NC(=O)[C@H](C)NC(=O)CNC(=O)[C@H](Cc2c[nH]cn2)NC(=O)[C@H](Cc2ccc(O)cc2)NC(=O)COCCOCCNC(=O)COCCOCCNC(=O)CC[C@H](NC(=O)CCCCCCCCCCCCCCCCC(=O)O)C(=O)O)[C@@H](C)O)C(C)C)CSSC[C@@H](C(=O)O)NC(=O)CNC(=O)[C@H](CC(C)C)NC(=O)CNC(=O)[C@H](CO)NC(=O)[C@H](CC(C)C)NC(=O)[C@H](CO)NC(=O)CNC1=O [compound 1303] ({C18 diacid-γGlu-AEEA-AEEA}-YHGAQKTGVSSGCFGLPLDRIGSLSGLGC-OH; disulfide 13-29) | 5 |  |  |
| CC[C@H](C)[C@@H]1NC(=O)[C@H](CCCNC(=N)N)NC(=O)[C@H](CC(=O)O)NC(=O)[C@H](CC(C)C)NC(=O)[C@@H]2CCCN2C(=O)[C@H](CC(C)C)NC(=O)CNC(=O)[C@H](Cc2ccccc2)NC(=O)[C@@H](NC(=O)CNC(=O)[C@H](CO)NC(=O)[C@H](CO)NC(=O)[C@H](CC(C)C)NC(=O)CNC(=O)[C@@H](NC(=O)[C@H](Cc2c[nH]cn2)NC(=O)[C@H](CCC(N)=O)NC(=O)[C@H](C)NC(=O)CNC(=O)[C@H](Cc2c[nH]cn2)NC(=O)[C@H](Cc2ccc(O)cc2)NC(=O)COCCOCCNC(=O)COCCOCCNC(=O)CC[C@H](NC(=O)CCCCCCCCCCCCCCCCC(=O)O)C(=O)O)[C@@H](C)O)CSSC[C@@H](C(=O)O)NC(=O)CNC(=O)[C@H](CC(C)C)NC(=O)CNC(=O)[C@H](CO)NC(=O)[C@H](CC(C)C)NC(=O)[C@H](CO)NC(=O)CNC1=O [compound 1304] ({C18 diacid-γGlu-AEEA-AEEA}-YHGAQHTGLSSGCFGLPLDRIGSLSGLGC-OH; disulfide 13-29) | 45 | 1.55 |  |
| CC[C@H](C)[C@@H]1NC(=O)[C@H](CCCNC(=N)N)NC(=O)[C@H](CC(=O)O)NC(=O)[C@H](CC(C)C)NC(=O)[C@@H]2CCCN2C(=O)[C@H](CC(C)C)NC(=O)CNC(=O)[C@H](Cc2ccccc2)NC(=O)[C@@H](NC(=O)CNC(=O)[C@H](CO)NC(=O)[C@H](CO)NC(=O)[C@H](CC(C)C)NC(=O)CNC(=O)[C@H](CCCCN)NC(=O)[C@H](CCCCN)NC(=O)[C@H](CCC(N)=O)NC(=O)[C@H](C)NC(=O)CNC(=O)[C@H](Cc2c[nH]cn2)NC(=O)[C@H](CCC(=O)O)NC(=O)COCCOCCNC(=O)COCCOCCNC(=O)CC[C@H](NC(=O)CCCCCCCCCCCCCCCCC(=O)O)C(=O)O)CSSC[C@@H](C(=O)O)NC(=O)CNC(=O)[C@H](CC(C)C)NC(=O)CNC(=O)[C@H](CO)NC(=O)[C@H](CC(C)C)NC(=O)[C@H](CO)NC(=O)CNC1=O [compound 1310] ({C18 diacid-γGlu-AEEA-AEEA}-EHGAQKKGLSSGCFGLPLDRIGSLSGLGC-OH; disulfide 13-29) | 45 | 0.87 |  |
| CC[C@H](C)[C@@H]1NC(=O)[C@H](CCCNC(=N)N)NC(=O)[C@H](CC(=O)O)NC(=O)[C@H](CC(C)C)NC(=O)[C@@H]2CCCN2C(=O)[C@H](CC(C)C)NC(=O)CNC(=O)[C@H](Cc2ccccc2)NC(=O)[C@@H](NC(=O)CNC(=O)[C@H](CCCCN)NC(=O)[C@H](CO)NC(=O)[C@H](CC(C)C)NC(=O)CNC(=O)[C@H](CCCCN)NC(=O)[C@H](CCCCN)NC(=O)[C@H](CCC(N)=O)NC(=O)[C@H](C)NC(=O)CNC(=O)[C@H](CCC(=O)O)NC(=O)[C@H](Cc2ccc(O)cc2)NC(=O)COCCOCCNC(=O)COCCOCCNC(=O)COCCOCCNC(=O)COCCOCCNC(=O)CC[C@H](NC(=O)CCCCCCCCCCCCCCCCC(=O)O)C(=O)O)CSSC[C@@H](C(=O)O)NC(=O)CNC(=O)[C@H](CC(C)C)NC(=O)CNC(=O)[C@H](CO)NC(=O)[C@H](CC(C)C)NC(=O)[C@H](CO)NC(=O)CNC1=O [compound 1375] ({C18 diacid-γGlu-AEEA-AEEA-AEEA-AEEA}-YEGAQKKGLSKGCFGLPLDRIGSLSGLGC-OH; disulfide 13-29; C-terminus assumed) | 45 |  |  |
| CC[C@H](C)[C@@H]1NC(=O)[C@H](CCCNC(=N)N)NC(=O)[C@H](CC(=O)O)NC(=O)[C@H](CC(C)C)NC(=O)[C@@H]2CCCN2C(=O)[C@H](CC(C)C)NC(=O)CNC(=O)[C@H](Cc2ccccc2)NC(=O)[C@@H](NC(=O)CNC(=O)[C@H](CCC(N)=O)NC(=O)[C@H](CO)NC(=O)[C@H](CC(C)C)NC(=O)CNC(=O)[C@H](CO)NC(=O)[C@H](CCCCN)NC(=O)[C@H](CCC(N)=O)NC(=O)[C@H](C)NC(=O)CNC(=O)[C@H](Cc2c[nH]cn2)NC(=O)[C@H](Cc2ccc(O)cc2)NC(=O)[C@H](CCCCN)NC(=O)[C@H](CCCNC(=N)N)NC(=O)[C@H](C)NC(=O)COCCOCCNC(=O)COCCOCCNC(=O)CC[C@H](NC(=O)CC[C@H](NC(=O)CCCCCCCCCCCCCCCCc2nnn[nH]2)C(=O)O)C(=O)O)CSSC[C@@H](C(=O)O)NC(=O)CNC(=O)[C@H](CC(C)C)NC(=O)CNC(=O)[C@H](CO)NC(=O)[C@H](CC(C)C)NC(=O)[C@H](CO)NC(=O)CNC1=O [compound 1426] ({X1-γGlu-γGlu-AEEA-AEEA}-ARKYHGAQKSGLSQGCFGLPLDRIGSLSGLGC-OH; disulfide 16-32) |  |  | 0.33 |
| CC[C@H](C)[C@@H]1NC(=O)[C@H](CCCNC(=N)N)NC(=O)[C@H](CC(=O)O)NC(=O)[C@H](CC(C)C)NC(=O)[C@@H]2CCCN2C(=O)[C@H](CC(C)C)NC(=O)CNC(=O)[C@H](Cc2ccccc2)NC(=O)[C@@H](NC(=O)CNC(=O)[C@H](CCC(N)=O)NC(=O)[C@H](CO)NC(=O)[C@H](CC(C)C)NC(=O)CNC(=O)[C@H](CCCCN)NC(=O)[C@H](CCCCN)NC(=O)[C@H](CCC(N)=O)NC(=O)[C@H](C)NC(=O)CNC(=O)[C@@H]2CCCN2C(=O)[C@H](C)NC(=O)[C@H](CCC(N)=O)NC(=O)CNC(=O)COCCOCCNC(=O)COCCOCCNC(=O)CC[C@H](NC(=O)CCCCCCCCCCCCCCCCC(=O)O)C(=O)O)CSSC[C@@H](C(=O)O)NC(=O)CNC(=O)[C@H](CC(C)C)NC(=O)CNC(=O)[C@H](CO)NC(=O)[C@H](CC(C)C)NC(=O)[C@H](CO)NC(=O)CNC1=O [compound 1484] ({C18 diacid-γGlu-AEEA-AEEA}-GQAPGAQKKGLSQGCFGLPLDRIGSLSGLGC-OH; disulfide 15-31; C-terminus assumed) | 4 |  |  |
